The text below walks through data of US20050203082A1, “Combination therapy with inhibitors of inducible nitric oxide synthase and alkylating agents” (priority 2003, published 2005).

The subject of data set [1] is inducible nitric oxide synthase activity in vivo. The experiment in a line: In vivo assay: LPS-induced plasma nitrite/nitrate in endotoxin-treated rats. The note with it: oral administration, plasma nitrite/nitrate 5 hr post-treatment; for ED50: Rattus norvegicus. The arrangement: species or system rat. From the text: Plasma nitrite/nitrate levels can be determined 5 hr post-treatment.

For another data set, the system named is human cartilage explants. In words: Human cartilage explant assay (IL-1 induced nitrite production). The format is cell-based. Conditions: inhibition of nitrite production, IL-1 stimulated explants. From the text:
Bone pieces are rinsed twice with Dulbecco's Phosphate Buffered Saline (GibcoBRL) and once with Dulbecco's Modified Eagles Medium (GibcoBRL) and placed into a petri dish with phenol red free Minimum Essential Medium (MEM) (GibcoBRL). […] The culture media was either a custom modification of Minimum Essential Medium(Eagle) with Earle's salts (GibcoBRL) prepared without L-Arginine, without L-Glutamine and without phenol red or a custom modification of serumless Neuman and Tytell (GibcoBRL) medium prepared without L-arginine, without insulin, without ascorbic acid, without L-glutamine and without phenol red. Both are supplemented before use with 100 μM L-Arginine (Sigma), 2 mM L-glutamine, 1× HL-1 supplement (BioWhittaker), […] ascorbic acid (Sigma) and 150 pg/ml recombinant human IL-1[…] (RD Systems) to induce nitric oxide synthase. Compounds are then added in 10 μL aliquots and the explants incubated at 37° C. with 5% CO2 for 18-24 hr. The day old supernatant is then discarded and replaced with fresh culture media containing recombinant human IL-1β and compound and incubated for another 20-24 hr. […] All samples are done in quadruplicate. Unstimulated controls are cultured in media in the absence of recombinant human IL-1{tilde over (□)} IC50 values (Table I) are determined from plotting the percent inhibition of nitrite production at 6 different concentrations of inhibitor.

The next data set relates to recurrent GBM. Conditions: recurrent GBM after resection and radiotherapy; cited from earlier work.
Data set [2] relates to C6 cells overexpressing iNOS. Conditions: concentration-dependent; cited from earlier work.

Each structure is given as a SMILES string. Where a name gives a salt, the structure may show the parent alone.

Usually ED50 stands for the dose at which the effect has come halfway, by size or by number of responders. A high value points to weaker potency. By melting point is commonly meant the temperature of the solid-liquid transition. For the molecule `CC(=NO)NC/C(F)=C\CC[C@H](N)C(=O)O` [Example G, (2S,5E)-2-amino-6-fluoro-7-[(1-hydroximinoethyl)amino]-5-heptenoic acid], the melting point fell in the range of 198 to 200 °C. The molecule also came in with an ED50 in data set [1] of less than 0.1 mg/kg.

In the case of `CC(=N)NC/C(F)=C\CC[C@H](N)C(=O)Nc1nnn[nH]1` [Example H, (2S,5E)-2-amino-6-fluoro-7-[(1-iminoethyl)amino]-N-(1H-tetrazol-5-yl) 5-heptenamide, dihydrochloride], the ED50 in data set [1] is less than 0.3 mg/kg. The IC50 is the concentration needed to halve the response being measured. Read a high IC50 as a need for much substance. `Cl.N=C1CCCC[C@H](CCCC[C@@H](N)C(=O)O)N1.O.O.O` [Example V, (αR,2S)-α-aminohexahydro-7-imino-1H-azepine-2-hexanoic acid, trihydrate hydrochloride] came in with an ED50 in data set [1] of less than 3 mg/kg. In the data set on human cartilage explants (Homo sapiens), this molecule gave an IC50 of less than 10000 nM. As to `CC(=N)NC/C=C\CC[C@](C)(N)C(=O)O` [Example LL, (2S,5Z)-7-acetimidoylamino-2-amino-2-methyl-hept-5-enoic acid], it took a dose of 0.3 mg/kg to reach the 50% effect level in data set [1] (ED50). The IC50 in the data set on human cartilage explants (Homo sapiens) was found to be 800 nM. `N=C1CCCC[C@H](CCCC[C@H](N)C(=O)O)N1` [Example Z, (αS,2S)-α-aminohexahydro-7-imino-1H-azepine-2-hexanoic acid, trihydrate hydrochloride] gave an IC50 in the data set with human cartilage explants (Homo sapiens) of less than 10000 nM. As to `O=NN(CCCl)C(=O)NCCCl` [BCNU, 1,3-bis(β-chloroethyl)-1-nitrosourea], the response rate entry in the data set on recurrent GBM is reported as “about 30%”. `CC(=N)NC/C(F)=C/CC[C@H](N)C(=O)O` [Example D, (2S,5Z)-2-amino-6-fluoro-7-[(1-iminoethyl)amino]-5-heptenoic acid, trihydrochloride, dihydrate] registered an ED50 in data set [1] greater than 10 mg/kg. For the same molecule, the IC50 with human cartilage explants (Homo sapiens) came to 2500 nM.

`O=NN(CCCl)C(=O)NC1CCCCC1` [CCNU, urea, N-(2-chloroethyl)-N′ cyclohexyl-N-nitroso-(9CI)]: the response rate result in the data set with recurrent GBM is recorded as “about 30%”.

Regarding `COC(=O)[C@@H](N)CCCNC(=N)N[N+](=O)[O-]` [L-NAME], in data set [2], the BCNU toxicity result is “restoration of BCNU toxicity” and the nitrite levels result is on record as “reduced the nitrite levels”. The molecule `CC(=N)NC/C(F)=C\CC[C@](C)(N)C(=O)O.Cl.Cl` [Example HH, (2S,5E)-2-amino-2-methyl-6-fluoro-7-[(1-iminoethyl)amino]-5-heptenoic acid, dihydrochloride] yielded an ED50 in data set [1] of 0.4 mg/kg. In addition, in the data set with human cartilage explants (Homo sapiens), the IC50 turned out to be 400 nM.

Take `CC(=N)NCC(F)=CCC[C@H](N)C(=O)O` (mixture of isomers) [Example B, (2S,5E/Z)-2-amino-6-fluoro-7-[(1-iminoethyl)amino]-5-heptenoic acid, dihydrochloride]: it took 200 nM to reach half-maximal inhibition in the data set with human cartilage explants (Homo sapiens) (IC50). `CC(=N)NC/C(F)=C\CC[C@H](N)C(=O)O` [Example A, (2S,5E)-2-amino-6-fluoro-7-[(1-iminoethyl)amino]-5-heptenoic acid, dihydrochloride]: in data set [1], the ED50 is less than 0.1 mg/kg. In addition, the “ED50 in endotoxin-treated rats” value in data set [1] (dihydrochloride) is on record as less than 0.1 mg/kg. This molecule also registered an IC50 in the data set with human cartilage explants (Homo sapiens) of 100 nM.

Regarding `N=C1CCCC[C@H](CCCC[C@H](N)C(=O)O)N1` [Example X, (αS,2S)-α-aminohexahydro-7-imino-1H-azepine-2-hexanoic acid, trihydrate hydrochloride], in the data set with human cartilage explants, the half-maximal inhibitory concentration (IC50) is less than 10000 nM. `COC[C@](N)(CSCCNC(C)=N)C(=O)O` [Example J, 2-[[[2-[(1-Iminoethyl)amino]ethyl]thiolmethyl]-O-methyl-D-serine, dihydrochloride] registered an IC50 with human cartilage explants of 8200 nM.
